Measured values: patent US20040152685A1, “Agents and methods for the prevention of initial onset and recurrence of existing cancers” (priority 2001, published 2004)
“Also recorded” adds a separate entry of the source.

Legend:
Type in all cases: cell-based
LNCaP cells = experiment: Cell growth of LNCaP prostate cancer cells after treatment; details: for inhibition of growth of LNCaP cells: 72 hours of treatment, FIG. 7
Method: Cells were treated with either eugenol (0.25, 0.5, 0.75 or 1 mM) or 2-ME (0.5, 1, 2 or 3 mM) or both (0.25, 0.5, 0.75 or 1 mM of eugenol along with 0.5 mM of 2-ME). Cell growth was measured following 72 hours of treatment as described above.

[1] = test system: prostate cancer cell lines (LNCaP, DU145) and brain and/or nervous system cancer cell line (DAOY); experiment: Cell proliferation of prostate and brain/nervous system cancer cell lines; details: DU145, DAOY cells
Source text: (§1) In a multitude of experiments, using prostate cancer cell lines (both androgen-dependent (LNCaP), and androgen-independent (DU145) cells), and a brain and/or nervous system cancer cell line (DAOY), the present inventors have studied the effects of 2-ME and 16-ES on cell proliferation and the induction of apoptosis, in a number of ways.

[2] = test system: prostate cancer cell lines (LNCaP, DU145) and brain and/or nervous system cancer cell line (DAOY); experiment: Induction of apoptosis in prostate and brain/nervous system cancer cell lines; details: DU145, DAOY cells
Source text: as §1

DU145 cells = experiment: Cell growth of DU145 prostate cancer cells after treatment; details: Homo sapiens, DU-145, FIG. 6, read-out: concentration necessary to see 50% inhibition of growth

SMILES	inhibition of growth of LNCaP cells (LNCaP cells; 0.5 mM of 2-ME)	inhibition of cancerous cell growth [1]	pro-apoptotic effects [2]	inhibition of growth of LNCaP cells (LNCaP cells; 0.25 mM of eugenol)	IC50 (LNCaP cells; Homo sapiens, LNCaP, read-out: concentration necessary to see 50% inhibition of growth)	IC50 (DU145 cells)
COc1cc2c(cc1O)CC[C@@H]1[C@@H]2CC[C@]2(C)[C@@H](O)CC[C@@H]12 [2-ME, 2-methoxyoestradiol]	about 20%	significantly inhibits cancerous cell growth; also recorded: inhibits the growth	has pro-apoptotic effects			
C[C@]12CC[C@@H]3c4ccc(O)cc4CC[C@H]3[C@@H]1C[C@H](O)[C@@H]2O [16-ES, 16-epiestriol]		does not	does not			
C=CCc1ccc(O)c(OC)c1 [eugenol]				about 30%	~750 µM	> 2000 µM
